Here are results for nine compounds from patent EP1785423A1, “Pyridopyrazine derivatives and their use as kinase modulators” (Zentaris GmbH, priority 2005, dated 2007).

What is called pIC50 is the negative decadic logarithm of the IC50, by convention in mol/L. Low values mean a large IC50, high ones a small IC50. Broadly, the pEC50 is the EC50 on a negative log10 scale, so that one unit is a factor of ten. Low values mean a large EC50, high ones a small EC50.

pEC50, pIC50: −log10 of the molar value.

For test [1], the target named is T1, PI3Kalpha (Homo sapiens, UniProt P42336).
T1 construct: teils als Volllängenkinasen, teils als verkürzte Fragmente - mindestens aber bestehend aus der funktionellen Kinasedomäne; purchased Upstate 14-602
T1 sequence (P42336 whole entry, the tested form may be a part): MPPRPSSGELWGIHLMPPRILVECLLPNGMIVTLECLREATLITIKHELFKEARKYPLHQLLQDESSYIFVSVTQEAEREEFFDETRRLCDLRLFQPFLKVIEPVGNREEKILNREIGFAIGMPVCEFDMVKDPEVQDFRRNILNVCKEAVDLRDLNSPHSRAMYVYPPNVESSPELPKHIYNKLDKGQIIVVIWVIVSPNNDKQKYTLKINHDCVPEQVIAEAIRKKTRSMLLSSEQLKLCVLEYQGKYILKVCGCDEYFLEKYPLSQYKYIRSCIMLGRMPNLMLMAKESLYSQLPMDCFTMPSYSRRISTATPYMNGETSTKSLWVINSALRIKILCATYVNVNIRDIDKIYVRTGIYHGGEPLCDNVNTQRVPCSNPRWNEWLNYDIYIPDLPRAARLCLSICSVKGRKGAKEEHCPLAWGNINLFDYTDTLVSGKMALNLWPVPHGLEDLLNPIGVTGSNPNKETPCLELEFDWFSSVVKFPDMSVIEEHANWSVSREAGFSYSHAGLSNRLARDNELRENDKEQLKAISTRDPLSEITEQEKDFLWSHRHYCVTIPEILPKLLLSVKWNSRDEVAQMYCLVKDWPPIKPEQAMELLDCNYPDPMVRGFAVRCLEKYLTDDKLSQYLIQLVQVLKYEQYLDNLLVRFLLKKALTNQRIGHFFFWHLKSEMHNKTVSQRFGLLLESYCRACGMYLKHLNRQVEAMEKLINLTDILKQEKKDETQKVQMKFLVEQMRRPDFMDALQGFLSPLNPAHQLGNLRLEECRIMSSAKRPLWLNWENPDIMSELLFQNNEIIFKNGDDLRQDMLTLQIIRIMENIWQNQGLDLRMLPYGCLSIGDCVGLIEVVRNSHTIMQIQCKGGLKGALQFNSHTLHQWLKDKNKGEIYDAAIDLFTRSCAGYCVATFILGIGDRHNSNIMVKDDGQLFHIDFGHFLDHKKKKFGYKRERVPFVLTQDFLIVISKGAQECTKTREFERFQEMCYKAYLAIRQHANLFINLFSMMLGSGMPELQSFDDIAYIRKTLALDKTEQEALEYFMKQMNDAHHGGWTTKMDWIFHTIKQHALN
T1 sequence (P27986 whole entry partner, the tested form may be a part): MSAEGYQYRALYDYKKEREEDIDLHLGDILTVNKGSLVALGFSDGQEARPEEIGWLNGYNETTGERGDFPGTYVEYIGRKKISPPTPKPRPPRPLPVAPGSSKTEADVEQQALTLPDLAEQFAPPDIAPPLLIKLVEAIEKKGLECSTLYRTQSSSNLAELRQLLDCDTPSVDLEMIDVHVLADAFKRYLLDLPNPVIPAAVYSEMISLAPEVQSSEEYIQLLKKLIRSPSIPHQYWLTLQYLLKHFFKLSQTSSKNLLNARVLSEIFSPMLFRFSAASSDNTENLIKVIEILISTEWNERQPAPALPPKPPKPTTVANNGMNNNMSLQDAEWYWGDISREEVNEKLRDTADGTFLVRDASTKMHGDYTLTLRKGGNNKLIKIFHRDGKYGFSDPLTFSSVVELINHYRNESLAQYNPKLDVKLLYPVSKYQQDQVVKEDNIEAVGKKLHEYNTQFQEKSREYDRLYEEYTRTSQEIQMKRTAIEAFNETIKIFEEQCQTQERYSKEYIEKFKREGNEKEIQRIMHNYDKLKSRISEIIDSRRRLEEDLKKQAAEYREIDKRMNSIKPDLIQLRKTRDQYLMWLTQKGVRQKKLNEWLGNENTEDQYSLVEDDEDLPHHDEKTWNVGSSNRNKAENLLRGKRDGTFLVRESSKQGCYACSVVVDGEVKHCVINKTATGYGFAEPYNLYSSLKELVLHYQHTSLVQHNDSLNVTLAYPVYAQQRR
Description: Cell-free kinase assay PI3K-ALPHA (ALPHA technology). It counts as biochemical. As to conditions: 100µM ATP. From the text: (§1) Die inhibitorische Wirkung der erfindungsgemäßen Verbindungen wurde an diversen humanen Serin/ Threonin-, Tyrosin- und Lipidkinasen in enzymatischen Assays getestet. Dabei wurden rekombinante humane Kinasen wie z.B. Erk2, Pl3Kalpha, - beta, -gamma, -delta, p38alpha, p38gamma, Jnk1, Jnk2 und andere eingesetzt, teils als Volllängenkinasen, teils als verkürzte Fragmente - mindestens aber bestehend aus der funktionellen Kinasedomäne. Die käuflichen Kinaseproteine (Proqinase, Upstate) wurden als rekombinante Fusionsproteine mit GST-(Glutathion-S-Transferase) oder His-Tag eingesetzt. Je nach Substrattyp wurden die verschiedenen Kinasereaktionen mittels geeigneter ALPHA™-beads (PerkinElmer) quantifiziert.
(§2) Nachfolgend wird die Substanztestung am Erk-Assay genauer beschrieben. Ausgewählte Testergebnisse der Erk2-, PI3Kalpha-Assays sind unten aufgeführt. […] Anschließend wurde die Kinasereaktion durch Zugabe von 10µl des mit anti-phospho MBP-Antikörpers (320pM, #05-429/ Upstate) präinkubierten ALPHA-Beadmixes (10µg/ml, #6760617/ PerkinElmer) in 25mM Tris, 200mM NaCl, 100mM EDTA und 0.3% BSA abgestoppt und über Nacht stehen gelassen. • b) PI3K-ALPHAs (z.B. PI3Kalpha): Die Testsubstanz, 1ng PI3Kalpha (#14-602, Upstate), 100µM ATP und 20µM PIP2-Substrat (#P4508, Echelon) auf einer 384er Optiplate (PerkinElmer) für 1h in 50mM Hepes, 50mM NaCl, 5mM MgCl2, 0.05% Chaps, 5mM DTT bei pH 7.4 inkubiert. Anschließend wurde die Kinasereaktion durch Zugabe des mit 1nM GST:Grp1-Fusionsprotein (Upstate) und 15nM biotinyliertem PIP3 (#C-39B6/ Echelon) präinkubierten ALPHA-Beadmixes (10µg/ml, #6760603/ PerkinElmer) in 50mM Hepes, 50mM NaCl, 50mM EDTA und 0.1% BSA abgestoppt und über Nacht stehen gelassen.
(§3) Die Fluoreszenzdetektion erfolgte am nächsten Morgen in einem Fusion™alpha-Gerät (PerkinElmer).
(§4) Die Berechnung der %-Inhibitionswerte je Substanz-Konzentration geschah mittels folgender Formel aus den im Fusion™alpha ermittelten Rohdaten: % Kinase Inhibition(Probe) = 100-(100×(MittelwertProbe -Mittelwert0% Kontrolle)/(Mittelwert100% Kontrolle -Mittelwert0% Kontrolle)) [formula]
(§5) Die Kontrollen wurden jeweils 8fach, die Substanzproben jeweils 2fach bestimmt. Die 0%-Kontrolle enthielt entweder kein ATP oder kein Substrat, die 100%-Kontrolle enthielt keine Testsubstanz. Die IC50-Werte wurden mit GraphPadPrism ermittelt.

In test [2] the target is T2, Erk2.
T2 construct: teils als Volllängenkinasen, teils als verkürzte Fragmente - mindestens aber bestehend aus der funktionellen Kinasedomäne; purchased Upstate 14-173
T2 sequence (P63085 2-358 limits assumed): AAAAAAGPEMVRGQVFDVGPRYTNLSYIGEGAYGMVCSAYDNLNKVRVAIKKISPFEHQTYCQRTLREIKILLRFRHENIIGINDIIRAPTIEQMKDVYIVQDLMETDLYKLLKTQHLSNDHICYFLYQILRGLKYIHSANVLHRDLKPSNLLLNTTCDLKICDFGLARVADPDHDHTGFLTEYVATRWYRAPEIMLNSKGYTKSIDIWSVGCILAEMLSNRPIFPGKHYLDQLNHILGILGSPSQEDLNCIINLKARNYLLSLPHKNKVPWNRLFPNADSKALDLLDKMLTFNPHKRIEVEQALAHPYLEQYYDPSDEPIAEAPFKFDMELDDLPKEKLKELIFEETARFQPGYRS
Description: Cell-free kinase assay Erk2-ALPHA (ALPHA technology). It counts as biochemical, human. The settings on record: 10µM ATP.
Excerpt: as §1, §2, §3, §4, §5

Test [3] relates to Hct116. Description: Cellular anti-proliferative XTT assay. It counts as cell-based. As to conditions: Homo sapiens, HCT-116, 45h incubation. An excerpt:
(§6) Das Prinzip dieses Testes beruht auf der intrazellulären Reduktion des Tetrazolium-Farbstoffes XTT (Natrium 3'-[1-(phenylaminocarbonyl)-3,4-tetrazolium]-bis(4-methoxy-6-nitro)benzensulfonsäure, Sigma) zu einem Formazan-Farbstoff durch mitochondriale Dehydrogenasen. Der Farbstoff wird nur von stoffwechselaktiven Zellen gebildet, seine photometrisch messbare Intensität ist ein quantitativer Indikator für das Vorhandensein lebender Zellen. Die Reduzierung der Farbstoffbildung durch Inkubation der Zellen mit Substanzen dient als Parameter für die anti-proliferative Wirkung.
(§7) Die Tumorzelllinien (ATCC) wurden in 96er Mikrotiterplatten in definierter Zellzahl (5000 Zellen/ Well für BxPC3 und Hct116; 10000 Zellen/ Well für MDA MB468) eingesäat und anschließend über Nacht im Brutschrank bei 37°C, 5% CO2 und 95% Luftfeuchtigkeit inkubiert. Die Testsubstanzen wurden als Stammlösungen (10 mM) in DMSO angesetzt. […] Die Zellplatten wurden dann für 45h im Brutschrank bei 37°C, 5% CO2 und 95% Luftfeuchtigkeit inkubiert.
(§8) Für die Detektionssreaktion wurde das Substrat XTT mit PMS (N-Methyl Dibenzopyrazine Methylsulfat, Sigma) versetzt und zu den Zellen gegeben, sodass eine finale Konzentration von 325µg XTT/ml und 2.5µg PMS/ml resultierte. Es wurde dann für 3h bei 37°C, 95% Luftfeuchte inkubiert. Anschließend konnte das durch zelluläre Dehydrogenasen gebildete Formazan Salz bei einer Adsorption bei 490nm quantifiziert werden.
(§9) Die Auswertung der %-Inhibitions-Werte geschah mittels folgender Formel aus den Werten für die jeweils gemessenen optischen Dichten bei 490nm: % Inhibition Zellproliferation(Probe) = 100-(100×(MittelwertProbe -Mittelwert0% Kontrolle)/(Mittelwert100% Kontrolle -Mittelwert0% Kontrolle)) [formula]
(§10) Die Kontrollen wurden jeweils 8fach, die Substanzproben jeweils 2fach bestimmt. Die 0%-Kontrolle enthielt keine Zellen, die 100%-Kontrolle enthielt keine Testsubstanz. Die EC50-Werte wurden mit GraphPadPrism ermittelt.
(Formazan colour is commonly taken as a measure of viable cells.)

Test [4] relates to BxPC3. Description: Cellular anti-proliferative XTT assay. It counts as cell-based. As to conditions: Homo sapiens, BXPC-3, 45h incubation.
Excerpt: as §6, §7, §8, §9, §10

Test [5] has as its system MDA-MB468. As to the kind of experiment: Cellular anti-proliferative XTT assay. Type of test: cell-based. As to conditions: Homo sapiens, MDA-MB-468, 45h incubation.
Excerpt: as §6, §7, §8, §9, §10

With `CCNC(=O)Nc1ccc2ncc(-c3ccc(OC(=O)Oc4ccccc4)cc3)nc2n1` [Beispiel 11, Kohlensäure-4-[6-(3-ethyl-harnstoff)-pyrido[2,3-b]pyrazin-3-yl]-phenyl-phenyl-ester], the negative-log IC50 (pIC50) in test [1] was below 4.50; in test [2] it was 6.57.
`CCNC(=O)Nc1ccc2ncc(C=CCOC)nc2n1` [Beispiel 6, 1-Ethyl-3-[3-((E)-3-methoxy-propenyl)-pyrido[2,3-b]pyrazin-6-yl]-harnstoff] had a pIC50 in test [1] of 4.67.
As to `CCNC(=O)Nc1ccc2ncc(-c3ccc(OC(=O)OCCOC)cc3)nc2n1` [Beispiel 10, Kohlensäure-4-[6-(3-ethyl-harnstoff)-pyrido[2,3-b]pyrazin-3-yl]-phenyl-(2-methoxy-ethyl)-ester], the pEC50 in test [3] is 5.30; in test [4] it was 5.05; in test [5], 5.15. Further, the pIC50 in test [1] is 5.59; in test [2], 7.06.
Regarding `C=CCONC(=O)Nc1ccc2ncc(-c3ccccc3)nc2n1` [Beispiel 8, 1-Allyloxy-3-(3-phenyl-pyrido[2,3-b]pyrazin-6-yl)-harnstoff], the pIC50 in test [1] was 4.57; in test [2] it was 5.39.
For `CCNC(=O)Nc1ccc2ncc(C#CC3CC3)nc2n1` [Beispiel 3, 1-(3-Cyclopropylethynyl-pyrido[2,3-b]pyrazin-6-yl)-3-ethyl-harnstoff], the pIC50 in test [1] was 4.77; in test [2] it was 5.24.
On to `CCNC(=O)Nc1ccc2ncc(-c3ccc(OC(=O)OC)cc3)nc2n1` [Beispiel 9, Kohlensäure-4-[6-(3-ethyl-harnstoff)-pyrido[2,3-b]pyrazin-3-yl]-phenyl-methyl-ester], for which the pEC50 in test [3] is 5.00; in test [4], 4.70; in test [5], 4.82. Besides, the results for the pIC50 in test [1] and in test [2] were 5.11 and 6.93, respectively.
Take `CCNC(=O)Nc1ccc2ncc(-c3ccc(OC(=O)N(CC)CC)cc3)nc2n1` [Beispiel 12, Diethyl-carbaminsäure-4-[6-(3-ethyl-harnstoff)-pyrido[2,3-b]pyrazin-3-yl]-phenyl-ester]: the pIC50 is 5.47 in test [1] and 5.55 in test [2].
Regarding `CONC(=O)Nc1ccc2ncc(-c3ccccc3)nc2n1` [Beispiel 7, 1-Methoxy-3-(3-phenyl-pyrido[2,3-b]pyrazin-6-yl)-harnstoff], the pIC50 was 4.55 in test [1] and 6.39 in test [2].
Regarding `CCNC(=O)Nc1ccc2ncc(-c3ccc(OC(=O)C=Cc4ccccc4)cc3)nc2n1` [Beispiel 13, (E)-3-Phenyl-acrylsäure-4-[6-(3-ethyl-harnstoff)-pyrido[2,3-b]pyrazin-3-yl]-phenyl-ester], in test [1], the pIC50 was below 4.50.
